Measurements reported in the supplement of paper PMC10307832.

Assays:
Assay in all cases: relative viability (nuclei count vs DMSO), 5 days (fraction); higher = more cells survive
HCC-15 = test system: HCC-15
Method in brief: (§1)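 Lung cancer cell lines, seeded in 1536-well plates, were treated the following day by pin tool with a single drug or with five library-drug doses (not always all listed) in √10 steps on top of a fixed anchor-drug dose. Cells were fixed and nuclei stained in one step after 5 days, and nuclei were counted. Relative viability is the nuclei count for treated wells divided by that for vehicle wells, reported as medians of duplicate plates.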

NCI-H1793 = test system: NCI-H1793
Method in brief: as §1

EKVX = test system: EKVX
Method in brief: as §1

SW 900 = test system: SW 900
Method in brief: as §1

H3255 = test system: H3255
Method in brief: as §1

NCI-H522 = test system: NCI-H522
Method in brief: as §1

NCI-H322M = test system: NCI-H322M
Method in brief: as §1

ChaGo-K-1 = test system: ChaGo-K-1
Method in brief: as §1

LC-2-ad = test system: LC-2-ad
Method in brief: as §1

NCI-H1792 = test system: NCI-H1792
Method in brief: as §1

EMC-BAC-2 = test system: EMC-BAC-2
Method in brief: as §1

NCI-H1993 = test system: NCI-H1993
Method in brief: as §1

NCI-H1915 = test system: NCI-H1915
Method in brief: as §1

HCC-827 = test system: HCC-827
Method in brief: as §1

PC-14 = test system: PC-14
Method in brief: as §1

LCLC-97TM1 = test system: LCLC-97TM1
Method in brief: as §1

NCI-H23 = test system: NCI-H23
Method in brief: as §1

NCI-H661 = test system: NCI-H661
Method in brief: as §1

NCI-H1944 = test system: NCI-H1944
Method in brief: as §1

NCI-H460 = test system: NCI-H460
Method in brief: as §1

SK-LU-1 = test system: SK-LU-1
Method in brief: as §1

EPLC-272H = test system: EPLC-272H
Method in brief: as §1

In the case of `COCC1(CO)C(=O)C2CCN1CC2` (stereo not given) [PRIMA-1MET] + CC(=O)c1c(C)c2cnc(Nc3ccc(N4CCNCC4)cn3)nc2n(C2CCCC2)c1=O [Palbociclib] (partner 0.5 µM), the relative viability (HCC-15; first compound 0.2 µM) is reported as 0.677, the relative viability (HCC-15; first compound 0.6325 µM) is reported as 0.407 and the relative viability (HCC-15; first compound 2 µM) is reported as 0.687. For the same compound, the relative viability (HCC-15; first compound 6.325 µM) was 0.735, the relative viability (HCC-15; first compound 20 µM) was 0.652 and the relative viability (NCI-H1793; first compound 0.2 µM) was 0.326. The relative viability (NCI-H1793; first compound 0.6325 µM) was 0.32, the relative viability (NCI-H1793; first compound 6.325 µM) was 0.332 and the relative viability (NCI-H1793; first compound 20 µM) was 0.331. For the same compound, the relative viability (EKVX; first compound 0.2 µM) was 0.42, the relative viability (EKVX; first compound 2 µM) was 0.346 and the relative viability (EKVX; first compound 6.325 µM) was 0.368. For the same compound, the relative viability (EKVX; first compound 20 µM) was 0.321, the relative viability (SW 900; first compound 0.2 µM) was 0.601 and the relative viability (SW 900; first compound 0.6325 µM) was 0.564. For the same compound, the relative viability (SW 900; first compound 6.325 µM) was 0.559, the relative viability (SW 900; first compound 20 µM) was 0.0834 and the relative viability (H3255; first compound 0.2 µM) was 0.319. The relative viability (H3255; first compound 0.6325 µM) was 0.293, the relative viability (H3255; first compound 2 µM) was 0.312 and the relative viability (H3255; first compound 6.325 µM) was 0.294. It also gave a relative viability (H3255; first compound 20 µM) of 0.33, a relative viability (NCI-H522; first compound 0.2 µM) of 1.05 and a relative viability (NCI-H522; first compound 0.6325 µM) of 0.94. For the same compound, the relative viability (NCI-H522; first compound 2 µM) was 0.862, the relative viability (NCI-H522; first compound 6.325 µM) was 0.774 and the relative viability (NCI-H522; first compound 20 µM) was 0.25. It also gave a relative viability (NCI-H322M; first compound 0.2 µM) of 0.535, a relative viability (NCI-H322M; first compound 0.6325 µM) of 0.515 and a relative viability (NCI-H322M; first compound 6.325 µM) of 0.525. For the same compound, the relative viability (NCI-H322M; first compound 20 µM) was 0.34, the relative viability (ChaGo-K-1; first compound 0.2 µM) was 0.989 and the relative viability (ChaGo-K-1; first compound 0.6325 µM) was 0.897. For the same compound, the relative viability (ChaGo-K-1; first compound 2 µM) was 0.917, the relative viability (ChaGo-K-1; first compound 6.325 µM) was 0.906 and the relative viability (ChaGo-K-1; first compound 20 µM) was 0.836. For the same compound, the relative viability (LC-2-ad; first compound 0.2 µM) was 0.496, the relative viability (LC-2-ad; first compound 0.6325 µM) was 0.484 and the relative viability (LC-2-ad; first compound 2 µM) was 0.525. It also gave a relative viability (LC-2-ad; first compound 6.325 µM) of 0.457, a relative viability (LC-2-ad; first compound 20 µM) of 0.468 and a relative viability (NCI-H1792; first compound 0.2 µM) of 0.633. For the same compound, the relative viability (NCI-H1792; first compound 0.6325 µM) was 0.596, the relative viability (NCI-H1792; first compound 2 µM) was 0.622 and the relative viability (NCI-H1792; first compound 6.325 µM) was 0.7. The relative viability (NCI-H1792; first compound 20 µM) was 0.638, the relative viability (EMC-BAC-2; first compound 0.2 µM) was 0.586 and the relative viability (EMC-BAC-2; first compound 0.6325 µM) was 0.466. It also gave a relative viability (EMC-BAC-2; first compound 2 µM) of 0.478, a relative viability (EMC-BAC-2; first compound 6.325 µM) of 0.503 and a relative viability (EMC-BAC-2; first compound 20 µM) of 0.499. For the same compound, the relative viability (NCI-H1993; first compound 0.2 µM) was 0.668, the relative viability (NCI-H1993; first compound 2 µM) was 0.715 and the relative viability (NCI-H1993; first compound 6.325 µM) was 0.698. The relative viability (NCI-H1993; first compound 20 µM) was 0.703, the relative viability (NCI-H1915; first compound 0.2 µM) was 0.507 and the relative viability (NCI-H1915; first compound 0.6325 µM) was 0.496. It also gave a relative viability (NCI-H1915; first compound 2 µM) of 0.451, a relative viability (NCI-H1915; first compound 6.325 µM) of 0.518 and a relative viability (NCI-H1915; first compound 20 µM) of 0.523. For the same compound, the relative viability (HCC-827; first compound 0.2 µM) was 0.573, the relative viability (HCC-827; first compound 0.6325 µM) was 0.462 and the relative viability (HCC-827; first compound 2 µM) was 0.403. The relative viability (HCC-827; first compound 6.325 µM) was 0.506, the relative viability (HCC-827; first compound 20 µM) was 0.615 and the relative viability (PC-14; first compound 0.2 µM) was 0.644. The relative viability (PC-14; first compound 0.6325 µM) was 0.476, the relative viability (PC-14; first compound 2 µM) was 0.509 and the relative viability (PC-14; first compound 6.325 µM) was 0.525. For the same compound, the relative viability (PC-14; first compound 20 µM) was 0.0303, the relative viability (LCLC-97TM1; first compound 0.2 µM) was 0.215 and the relative viability (LCLC-97TM1; first compound 0.6325 µM) was 0.192. It also gave a relative viability (LCLC-97TM1; first compound 2 µM) of 0.193, a relative viability (LCLC-97TM1; first compound 6.325 µM) of 0.264 and a relative viability (LCLC-97TM1; first compound 20 µM) of 0.206. For the same compound, the relative viability (NCI-H23; first compound 0.2 µM) was 0.469, the relative viability (NCI-H23; first compound 0.6325 µM) was 0.351 and the relative viability (NCI-H23; first compound 2 µM) was 0.416. For the same compound, the relative viability (NCI-H23; first compound 6.325 µM) was 0.538, the relative viability (NCI-H23; first compound 20 µM) was 0.121 and the relative viability (NCI-H661; first compound 0.2 µM) was 0.418. The relative viability (NCI-H661; first compound 0.6325 µM) was 0.391, the relative viability (NCI-H661; first compound 2 µM) was 0.414 and the relative viability (NCI-H661; first compound 6.325 µM) was 0.423. The relative viability (NCI-H661; first compound 20 µM) was 0.446, the relative viability (NCI-H1944; first compound 0.2 µM) was 0.357 and the relative viability (NCI-H1944; first compound 0.6325 µM) was 0.285. It also gave a relative viability (NCI-H1944; first compound 2 µM) of 0.288, a relative viability (NCI-H1944; first compound 6.325 µM) of 0.312 and a relative viability (NCI-H1944; first compound 20 µM) of 0.295. It also gave a relative viability (NCI-H460; first compound 0.2 µM) of 0.153, a relative viability (NCI-H460; first compound 0.6325 µM) of 0.139 and a relative viability (NCI-H460; first compound 2 µM) of 0.168. The relative viability (NCI-H460; first compound 6.325 µM) was 0.114, the relative viability (NCI-H460; first compound 20 µM) was 0.0061 and the relative viability (SK-LU-1; first compound 0.2 µM) was 0.395. The relative viability (SK-LU-1; first compound 0.6325 µM) was 0.385, the relative viability (SK-LU-1; first compound 2 µM) was 0.255 and the relative viability (SK-LU-1; first compound 6.325 µM) was 0.376. The relative viability (SK-LU-1; first compound 20 µM) was 0.32, the relative viability (EPLC-272H; first compound 0.2 µM) was 0.312 and the relative viability (EPLC-272H; first compound 0.6325 µM) was 0.276. The relative viability (EPLC-272H; first compound 2 µM) was 0.329, the relative viability (EPLC-272H; first compound 6.325 µM) was 0.336 and the relative viability (EPLC-272H; first compound 20 µM) was 0.289.
